Measurements: patent US20090170930A1, “METHODS FOR DIRECTING DIFFERENTIATION OF CLONOGENIC NEURAL STEM CELLS WITH COUMARINS” (THE SECOND MILITARY MEDICAL UNIVERSITY, priority 2006, published 2009)

Tests used:
[1] = tested on: Rat NSCs; assay: NG2 immunocytochemistry cell count: differentiation of NSCs to NG2 positive cells (OPCs); format: cell-based; conditions: NSC neurospheres, mean±S.D.
Procedure: (§1) Rat NSCs isolation and culture were performed as described by Weiss et al (Weiss et al., 1996). Briefly, the cortex of 1- to 2-day-old newborn SD rats were removed and placed into sterile chilled Hank's Balanced Salt Solution. After the meninges were carefully removed, tissues were cut into tiny pieces and gently triturated with a Pasteur pipette at least 10-15 times. The suspended tissue was centrifuged at 500 g for 5 min and the pellets were re-suspended in a proliferation medium (DMEM/F12 nutrient (1:1) with additional 2% B27 (Invitrogen Corporation, Carlsbad, Calif.) supplement and 20 ng/mL bFGF (PeproTech, Rocky Hill, N.J.)). The cells were plated at a density of 50 cells/mL in non-coated […] flasks. Every 4 days, bFGF was added along with a partial medium change. After 7 days in vitro, cells formed floating neurospheres. To subculture NSCs, the neurospheres were centrifuged at 600 g for 5 min when the diameters of neurospheres reached a size of approximately 100-200 μm; they were then re-suspended in fresh medium and mechanically dissociated into single cells. Single cells subsequently were seeded into proliferation medium at a density of 10 cells/mL per flask. This procedure produced a second generation of neurospheres, and additional generations of NSCs were produced using this same procedure.
Neurospheres were plated into 12-well plates on poly-D-lysine coated 35 mm dishes at a density of 10-20 spheres per dish in 1.5 mL medium. 1 hour after plating, compounds were added at a final concentration 100 μM unless otherwise indicated. After 5 days, cells were examined with Phase contrast image or immunocytochemistry.
Identification of the different kinds of cells was performed using indirect immunocytochemistry. Cells on dishes were fixed with 4% paraformaldehyde at room temperature for 20 min and washed three times in succession with 0.01 M PBS for 5 min each time. Cells were then treated with 0.3% Triton 100 containing 10% normal goat serum at room temperature for 30 min (Xu et al., 2006). Cells were then incubated with primary antibodies at 4° C. for 12-16 h and washed three times with 0.01 M phosphate buffered saline (PBS) for 5 min each time. FITC-conjugated secondary antibodies were added to the cells, and the cells were incubated at 37° C. for 40 min. After three 5 min PBS washes, Hochest 33258 nuclear stain was added at room temperature for 10 min, followed by two more 5 min PBS rinses. The dishes were examined by a fluorescence microscopy. The primary antibodies included anti-GFAP (1:200; rabbit; Promega), anti-nestin (1:500; Mouse; Chemicon); anti-NG2(1:200; Mouse; Chemicon), anti-MBP (1:50; Mouse; Chemicon), anti-04 (1:100; Mouse; Chemicon), anti-RIP (1:100; Mouse; Chemicon), anti-olig2 (1:100; rabbit; Abcam). The secondary antibodies were FITC-labeled antibodies to rabbit IgG (1:200) and TRITIC-labeled antibodies to mouse IgG (1:200). Immunostained preparations were examined with an IX70 Olympus microscope equipped for phase contrast and epi-fluorescence. Light from a 75 W xenon arc lamp (AH2-RX, Olympus) passed through filter sets (Chroma) to generate excited light for Hochest 33258, FITC and TRITIC stains. All image acquisitions were finished with computer-controlled CCD (Micromax 5 MHz system, Roper Princeton Instruments) and MetaMorph Imaging System version 3.6 (Universal Imaging Corporation). To determine the number of cells expressing a particular antigen, 100 fields per sample were examined and totaled. Observers without knowledge of the treatment condition counted the numbers of positive cells for NG2, compared to total numbers of progeny of NSCs determined by counting Hochest 33258 staining cell nuclei. Results are given as mean±S.D. of data for six samples from three independent experiments. Statistical analyses were carried out using Student's t-test with SPSS software (Version 10.1). […]

[2] = tested on: NSCs; assay: Primary compound screen of NSCs, phase contrast morphology; format: cell-based, rat; conditions: 100 μM, 5 days, phase contrast microscope
Procedure: as §1, with “procedure. […]” for “procedure.”

Row | Compound | The ratio of NG2 positive cells of the total cells (%) ([1]; Dose 1 μM) | The ratio of NG2 positive cells of the total cells (%) ([1]; Dose 10 μM) | The ratio of NG2 positive cells of the total cells (%) ([1]; Dose 100 μM) | The ratio of NG2 positive cells of the total cells (%) ([1]; Dose 1 mM) | The ratio of NG2 positive cells of the total cells (%) ([1]; Dose 1 μM, listed as daphnoretin) | The ratio of NG2 positive cells of the total cells (%) ([1]; Dose 10 μM, listed as daphnoretin) | The ratio of NG2 positive cells of the total cells (%) ([1]; Dose 100 μM, listed as daphnoretin) | The ratio of NG2 positive cells of the total cells (%) ([1]; Dose 1 mM, listed as daphnoretin) | generation of round bipolar or multipolar morphology cells (probably OPCs) [2]
1 | O=c1ccc2ccc(O)cc2o1 [7-hydroxycoumarin] | 68 ± 6.5 | 76 ± 6.6 | 89 ± 9.3 | 92 ± 8.7 | – | – | – | – | –
2 | COc1ccc2ccc(=O)oc2c1 [7-methoxy coumarin] | 16.7 ± 2.2 | 1 | 1 | 1 | – | – | – | – | –
3 | O=c1ccc2cc(O)c(O)cc2o1 [Aesculetin] | 53 ± 2.4 | 63 ± 2.9 | 68 ± 2.7 | 75 ± 1.6 | – | – | – | – | –
4 | COc1cc2oc(=O)cc(-c3ccccc3)c2cc1O [Dalbergin] | 1 | 1 | 1 | 1 | – | – | – | – | –
5 | COc1cc2cc(Oc3ccc4ccc(=O)oc4c3)c(=O)oc2cc1O[C@@H]1O[C@H](CO)[C@@H](O)[C@H](O)[C@H]1O [Daphnoretin-7-O-β-D-glucopyranoside] | 1 | 1 | 1 | 1 | – | – | – | – | –
6 | COc1cc2cc(Oc3ccc4ccc(=O)oc4c3)c(=O)oc2cc1O [Daphnoretin] | 65 ± 5.3 | 87 ± 7.5 | 92 ± 8.6 | 95 ± 6.9 | 65±5.3 | 87±7.5 | 92±8.6 | 95±6.9 | markedly enhance the generation of round bipolar or multipolar morphology cells
7 | O=c1ccc2ccc(Oc3cc4ccc(O)cc4oc3=O)cc2o1 [Edgeworin] | 60 ± 2.6 | 63 ± 2.9 | 68 ± 3.5 | 81 ± 3.1 | – | – | – | – | –
8 | C[C@@H]1O[C@@H](Oc2ccc3ccc(=O)oc3c2-c2c(O)ccc3ccc(=O)oc23)[C@H](O)[C@H](O)[C@H]1O [Edgeworoside C] | 1 | 1 | 1 | 1 | – | – | – | – | –
9 | O=c1ccc2cc(O[C@@H]3O[C@H](CO)[C@@H](O)[C@H](O)[C@H]3O)c(O)cc2o1 [Esculetin-6-β-D-glucopyranoside] | 67 ± 4.6 | 72 ± 3.5 | 70 ± 3.9 | 85 ± 5.2 | – | – | – | – | –
10 | COc1cc(O)c2c(=O)cc(-c3ccc(O)cc3)oc2c1 [Genkwanin] | 23 ± 2.3 | 1 | 1 | 1 | – | – | – | – | –
11 | COc1cc2cc(Oc3ccc4ccc(=O)oc4c3)c(=O)oc2cc1OC [Isodaphnoretin] | 15.6 ± 1.8 | 1 | 1 | 1 | – | – | – | – | –
12 | COc1cc2ccc(=O)oc2cc1O [Scopoletin] | 62 ± 5.6 | 63 ± 6.3 | 70 ± 6.9 | 68 ± 6.7 | – | – | – | – | –
13 | Isopsoralen | 21 ± 1.6 | 1 | 1 | 1 | – | – | – | – | –
